Measurements reported in US3962321A, “Enhancement of coffee flavor” (General Foods Corporation, priority 1973, dated 1976).
“Also recorded” adds a separate entry of the source.

Assays:
[1] = Expert taster flavor and aroma levels (threshold, recognition, fatty flavor) in regular or soluble coffee brew; details: about 1 to 1.5% coffee solids brew; for Recognition Level: woody note
Description: The threshold level is that quantity of flavoring producing a change in cup flavor and aroma, but a change which cannot be described as a particular flavor. The recognition level is the quantity of flavoring which can be defined as imparting a woody note to the brew. The fatty level is that point where the undesirable fatty flavor becomes apparent and detracts from the woody character of the flavoring noted at lower levels.

[2] = General flavor characterization by flavor experts; details: 50 ppm or higher
[3] = Taste comparison in instant Maxwell House coffee beverage (Example XI); details: for Taste comparison with control: 1.35% coffee solids (Example XIA)
Description: A. A taste comparison was made of instant Maxwell House brand coffee beverage containing 1.35% coffee solids enhanced with 1 ppb and 2 ppb trans-2-nonenal.
B. Example XIA was repeated employing a broader range of flavor enhancement.

[4] = Taste comparison in spray dried instant Maxwell House coffee containing synthetic winey, buttery flavor (Example XII); details: 2 ppb; 1.35% coffee solids brew
Description: Spray dried instant Maxwell House brand coffee containing a synthetic, winey, buttery flavor was compared to an identical sample containing an additional 2ppb trans-2-nonenal.

[5] = Taste comparison in freeze dried Maxim soluble coffee (Example XIII)
[6] = Taste comparison in freeze dried Maxim soluble coffee with steam generated aroma (Example XIV); details: 2 ppb
[7] = Flavor evaluation in water and soluble coffee (Example XVI)
Description: A ten percent ethanolic solution of trans-2-nonenal (Compagnie Parento, Croton-on-Hudson, New York) was passed through a Perkin-Elmer model 900 gas chromatography unit having a 6-foot by 1/8 inch column packed with 10% diethylene glycol succinate polyester on 80/90 Anakrom ABS.

[8] = Expert panel flavor evaluation in instant Maxwell House coffee (Example XVII); details: two parts per billion; 1.35% coffee solids
Description: An expert panel flavor evaluation was made of trans-2-nonenal, purified as in Example XVI, at a level of two parts per billion in instant Maxwell House brand soluble coffee at a 1.35% coffee solids concentration.

[9] = Flavor comparison in Sanka decaffeinated soluble coffee (Example XVIII); details: 2 ppb
[10] = Flavor evaluation of retention on freeze drying of coffee extract (Example XX); assay type: physicochemical; details: theoretical 2 ppb
Experimental: Trans-2-nonenal (5 mg in one ml of ethanol) is added to 500 ml of distilled water and the aqueous mixture poured into 52 pounds of coffee extract of 28.2% coffee solids. The coffee-nonenal mixture is stirred and then poured into trays and frozen to form 3/8 inch thick slabs. Control slabs are also prepared from the same extract without the addition of flavors.
The slabs are freeze dried in a 50 square foot Stokes Freeze Drier under 150 microns pressure. […] Condenser temperature is maintained at -40°F.
A flavor evaluation is made by dissolving 0.65 gms of trans-2-nonenal aromatized freeze dried coffee and 2.60 gms of freeze dried control in eight bunces of hot water to give a theoretical 2 ppb concentration. Control cups are prepared by dissolving 3.25 gms of freeze dried control coffee in eight ounces of hot water and adding thereto 10 microliters of a 5 ml aqueous solution containing 0.25 mg trans-2-nonenal to give a 2 ppb concentration.

[11] = Triangular odd cup flavor evaluation of retention on spray drying of coffee extract (Example XXI); assay type: physicochemical
Experimental: To 500 ml of distilled water is added 2.34 mg of trans-2-nonenal dissolved in 1 ml of ethanol. The aqueous mix is added to 40 pounds of coffee extract (24.5% solids) and the mixture is spray dried.
Unaromatized extract is spray dried umder equivalent conditions for use as a control. A flavor evaluation is made by dissolving 3.25 g of the aromatized coffee in eight ounces of hot water. Control cups are prepared by dissolving in each cup 3.25 g of control coffee in eight ounces of hot water and then adding thereto 10 microliters of a solution of 0.24 mg trans-2-nonenal in 5 ml of water.

[12] = Flavor comparison in 100% Robusta spray dried soluble coffee (Example XXIV); details: 2 ppb
[13] = Evaluation in various foodstuffs versus control (Example XXV)
Experimental: To various foodstuffs is added minute amounts of the enhancing compounds of this invention at the proportions indicated. The foodstuffs are then evaluated by comparison to a control not containing the enhancer.

[14] = Taste comparison in instant Postum beverage (Example XXVI)
Experimental: A solution of trans-2-nonenal was prepared by dissolving 20 mg of the aldehyde in 50 ml of ethanol. One half of a milliliter of the resulting solution was then dissolved in 50 ml of spring water to yield a 0.2 mg/50 ml solution. The spring water solution was employed to prepare enhanced instant Postum by adding a sufficient amount to two grams of Postum dissolved in 200 ml of boiling spring water to give 5, 10, 20, and 30 ppb concentrations of nonenal in the hot Postum beverage. These beverages were compared with a control of 2 grams Postum dissolved in 200 ml boiling spring water by several expert tasters.

[15] = Flavor effect in whisky and carbonated and non-carbonated beverages

Compound: CCCCCC/C=C/C1OCCO1 [1-Octenyl-1-dioxolane, trans-1-octenyl-2-dioxolane]
- Threshold Level [1]: 0.3 ppb
- Undesired Fatty Flavor Becoming Apparent [1]: 1000 ppb
- Recognition Level [1]: 0.8 ppb

Compound: CCCCCC/C=C\COC(C)=O [cis-2-nonenyl acetate]
- Threshold Level [1]: 50 ppb
- Undesired Fatty Flavor Becoming Apparent [1]: 1500 ppb
- Recognition Level [1]: 150 ppb

Compound: CCCCCC/C=C/C=O [trans-2-nonenal]
- Threshold Level [1]: 0.05-0.2 ppb
- Undesired Fatty Flavor Becoming Apparent [1]: 16 ppb
- Recognition Level [1]: 0.4-0.6 ppb
- Flavor when tasted at conventional flavor concentrations [2]: unpleasant, rancid fat flavor
- Flavor Comments ([3]; 0.2 ppb in the brew): detectable subtle flavor
- Flavor Comments ([3]; 0.4 ppb in the brew): subtle recognition of woodiness
- Flavor Comments ([3]; 0.6 ppb in the brew): definite recognition of woodiness
- Flavor Comments ([3]; 1 ppb in the brew): woody and smoother
- Taste comparison with control ([3]; 1 ppb): did not give a detectable woody flavor, but did balance or blend the coffee flavor and masked the caramel and acid flavor of the control
- Flavor Comments ([3]; 2 ppb in the brew): woody and groundsy
- Taste comparison with control ([3]; 2 ppb): improved woody regular coffee flavor and lacked the typical caramel and acid notes of the control
- Flavor Comments ([3]; 8 ppb in the brew): high woody impact
- Flavor Comments ([3]; 16 ppb in the brew): tallowy flavor
- Flavor Comments ([3]; 30 ppb in the brew): burnt, fatty
- Flavor Comments ([3]; 40 ppb in the brew): burnt, fatty and rancid
- Flavor comparison with identical sample without additive [4]: very desirable balanced flavor, having prominent winey, buttery and woody regular coffee notes
- Taste comparison with control ([5]; 1 ppb): while woodiness was not evident, there was an improved balanced cup flavor and a reduction in sourness
- Taste comparison with control ([5]; 2 ppb): improved woody regular coffee note. In addition, the typically winey and buttery notes of the coffee were better balanced and the typical sourness of the brew was masked
- Flavor comparison with control [6]: very good regular coffee flavor, the brew having improved cup flavor and lacking sourness when compared to the control
- Flavor in water ([7]; 2 ppb and 20 ppb in water): regular coffee flavor characterized by experts as woody or spent grounds
- Concentration at which expert tasters find undesirable flavors ([7]; not apparent to less skilled tasters): about 16 ppm
- Expert panel flavor evaluation [8]: slight spent grounds flavor which improved the regular brewed character of the coffee; also recorded: desirable blending or mixing of flavor and a secondary aromatic flavor similar to that produced by the addition of steam generated aroma
- Flavor comparison with control [9]: improved woody flavor and good balance of cup flavor and aroma
- Loss of aroma during freeze drying [10]: slight loss of trans-2-nonenal aroma during freeze drying
- Woody flavor of freeze dried aromatized sample relative to control ([10]; after freeze drying): about ninety
- Loss during spray drying [11]: no significant loss of trans-2-nonenal during spray drying
- Difference between aromatized and control cups ([11]; triangular, odd cup flavor evaluation): no difference between the cups
- Flavor comparison with control [12]: improved woody cup flavor and aroma
- Evaluation ([13]; Ex. 1 Cola beverage, 2 ppb): Woody
- Evaluation ([13]; Ex. 2 Pear nectar, 1 ppb): Increased pear flavor
- Evaluation ([13]; Ex. 3 Ginger ale, 2 ppb): Woody
- Evaluation ([13]; Ex. 5 Cranberry juice, 2 ppb): Woody
- Evaluation ([13]; Ex. 7 Condensed beef broth, 2 ppb): High woody
- Evaluation ([13]; Ex. 8 Root Beer beverage, 1 ppb): Enhanced flavor
- Evaluation ([13]; Ex. 8 Root Beer beverage, 2 ppb): High woody
- Evaluation ([13]; Ex. 9 Creme Soda, 2 ppb): High woody
- Evaluation ([13]; Ex. 11 Cherry gelatin dessert, 2 ppb): Woody
- Evaluation ([13]; Ex. 12 Artificially sweetened cola beverage, 2 ppb): Woody
- Evaluation ([13]; Ex. 13 Meat broth, 1 ppb): Higher flavor impact
- Effect on molasses flavor and woody flavor of Postum [14]: reduced appreciably the characteristic molasses flavor of Postum and imparted a slight woody flavor
- Effect on sweet, cereal taste of Postum [14]: significant reduction in the sweet, cereal taste of the beverage
- Taste preference ([14]; 5 ppb and 10 ppb): preferred
- Flavor in beverages [15]: low level woody note not detectable as coffee flavor which enhances the basic flavor of the beverage

Compound: CCCCCC/C=C/C(OCC)OCC [trans-2-nonene diethyl acetal]
- Threshold Level [1]: 0.02 ppb
- Undesired Fatty Flavor Becoming Apparent [1]: 1200 ppb
- Recognition Level [1]: 0.03 ppb

Compound: CCCCCC/C=C/C(OC)OC [trans-2-nonene dimethyl Acetal, trans-2-nonene dimethyl acetal]
- Threshold Level [1]: 0.03 ppb
- Undesired Fatty Flavor Becoming Apparent [1]: 800 ppb
- Recognition Level [1]: 0.08 ppb

Compound: CCCCCC/C=C/COC(C)=O [trans-2-nonenylacetate, Trans-2-nonenyl acetate]
- Threshold Level [1]: 100 ppb
- Undesired Fatty Flavor Becoming Apparent [1]: 1500 ppb
- Recognition Level [1]: 200 ppb
